Results: patent US8728472B2, “Antibodies that bind selectively to P25 and uses therefor” (The Board of Regents of the University of Texas System, priority 2009, dated 2014)
Residues, ends and D or L forms follow the SMILES beside them. *: point of attachment. Cbz = O=C(OCc1ccccc1)*

What was measured:
[1] = target: T1, D1 dopamine receptor (Mus musculus, UniProt Q61616); assay: D1 agonist-induced PKA-dependent phosphorylation in striatal slices; assay type: cell-based
T1 construct: from tissue; host or cells: acute mouse striatal slices
Description: Homogenates were prepared from rapidly dissected tissue or striatal slices using standard methodology (Nishi et al., 1997).

[2] = tested on: calpain; conditions: preincubation 20 μM, 1 h, striatal slices
Description: Acutely prepared coronal slices were prepared as described (Nishi et al., 1997). For OGD, slices were switched from Kreb's buffer bubbled in 95% O2/5% CO2 to 100% N2 and glucose was replaced by 10 mM sucrose for indicated periods (Sahin et al., 2008; Sahin et al., 2007). […] Homogenates were prepared from rapidly dissected tissue or striatal slices using standard methodology (Nishi et al., 1997). […] For immunostaining of cultured cells, rat primary striatal neuron cultures were prepared, subjected to control or OGD conditions, fixed and stained as described (Meyer et al., 2008).

[3] = tested on: coronal mouse brain slices; assay: TTC viability staining of coronal brain slices subjected to OGD; assay type: cell-based; conditions: for neuroprotective effect against OGD-induced neuronal death / viability (TTC staining) after 60 min OGD: incubation 1 h prior to and during OGD; for viability (TTC staining) after 60 min OGD: 60 min without oxygen and glucose
Description: (§1) Slices were treated with SKF81297 (1 μM, 10 min), calpain inhibitor 3, calpeptin (20 μM, 1 h), Ca^2+-free Krebs (1 h), and Indo A or B (1 h) at indicated concentrations. See Methods.
(§2) Abs to p35, DARPP-32 (Nishi et al., 1997), GFAP, and p25 were used to stain rat coronal cryosections (20 μm) from control and stroked hemispheres. […] See Methods for further details.
Having established this pharmacological approach, the effect of OGD on neuronal viability was next quantitatively assessed by 2, 3, 5-triphenyltetrazolium chloride (TTC) staining (Bederson et al., 1986) (FIGS. 8E and 8F). TTC staining was readily observed in coronal mouse brain slices oxygenated in Kreb's buffer for 1 h. OGD induced time-dependent neuronal death with TTC staining reduced to 60.8±2.1 and 0.6±7.9% of control levels by exposure to ischemic conditions for 30 and 60 min, respectively.

[4] = target: T2, Cdk5 (Mus musculus, UniProt P49615); assay: Cdk5 inhibition in striatal slices by blotting phospho-Thr75 DARPP-32; assay type: cell-based
T2 construct: from tissue; host or cells: acute striatal slices
Description: as §1, §2
To assess the deleterious effects of aberrantly active Cdk5/p25, the selective and potent Cdk5 inhibitor, indolinone A (Gillardon et al., 2005) (Indo A) was employed. First, its ability to inhibit Cdk5 in striatal slices was assessed by treating striatal slices with various concentrations (1-10 μM) of Indo A and blotting the lysates for the defined Cdk5 site, phospho-Thr75 DARPP-32 (Bibb et al., 1999). […] In contrast the congener Indolinone B, which is limited in specificity to Cdk4 (Weishaupt et al., 2003), had no effect on Cdk5-dependent phosphorylation of DARPP-32.

[5] = tested on: striatal projecting spiny neurons; assay: Electrophysiological recordings (EPSP, membrane potential, field potential) in corticostriatal slices under OGD; assay type: cell-based; conditions: pre-treatment
Description: Electrophysiological recordings of FPs and single unit activity were taken from slices under physiological and OGD conditions using described methodology (Calabresi et al., 1998; Picconi et al., 2003; Costa et al., 2006).
To better understand the physiological effects of shorter periods of ischemia, a neurophysiological approach was utilized. Sharp microelectrode intracellular recordings were obtained from striatal projecting spiny neurons identified according to their electrophysiological characteristics (Calabresi et al., 1998). In these neurons, a very brief period (2-3 min) of OGD induced loss of membrane potential (FIGS. 10A-B) and a transient suppression of the excitatory post-synaptic potential (EPSP) followed by a long-term increase in the EPSP amplitude in comparison to the pre-ischemic period (139.7±10.3%, n=5, p<0.05, FIG. 10C). This long-term increase of the glutamatergic transmission at corticostriatal synapses, called post-ischemic LTP (i-LTP), represents a pathological form of synaptic plasticity occurring after brain ischemia (Calabresi et al., 2003; Calabresi et al., 1998; Calabresi et al., 2002). […] Extracellular field potential (FP) recordings were also obtained from corticostriatal slices. In control conditions, 10 min of OGD caused an irreversible loss of FP (FIGS. 10E-F).

T1 sequence (Q61616 whole entry): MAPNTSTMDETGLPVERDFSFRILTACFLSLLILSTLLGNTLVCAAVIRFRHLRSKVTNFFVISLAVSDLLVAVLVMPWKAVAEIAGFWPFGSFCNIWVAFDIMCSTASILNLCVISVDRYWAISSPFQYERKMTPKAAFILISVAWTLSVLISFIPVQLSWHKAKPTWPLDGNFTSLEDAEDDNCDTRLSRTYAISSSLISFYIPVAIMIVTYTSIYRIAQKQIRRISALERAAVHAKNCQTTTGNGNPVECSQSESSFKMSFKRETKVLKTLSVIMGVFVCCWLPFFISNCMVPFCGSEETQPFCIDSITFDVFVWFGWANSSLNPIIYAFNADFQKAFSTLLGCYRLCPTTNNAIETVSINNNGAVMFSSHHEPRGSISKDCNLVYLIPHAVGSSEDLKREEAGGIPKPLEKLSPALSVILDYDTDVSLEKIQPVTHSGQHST
T2 sequence (P49615 whole entry): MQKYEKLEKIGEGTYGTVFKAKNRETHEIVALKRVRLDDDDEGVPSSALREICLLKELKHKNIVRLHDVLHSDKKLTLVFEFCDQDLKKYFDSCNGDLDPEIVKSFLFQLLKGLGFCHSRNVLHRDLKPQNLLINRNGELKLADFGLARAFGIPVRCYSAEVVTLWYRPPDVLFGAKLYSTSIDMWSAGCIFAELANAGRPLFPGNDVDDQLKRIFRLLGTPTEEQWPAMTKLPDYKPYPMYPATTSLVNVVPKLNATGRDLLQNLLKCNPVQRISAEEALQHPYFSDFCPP
T2 sequence (P61809 2-307 partner limits assumed): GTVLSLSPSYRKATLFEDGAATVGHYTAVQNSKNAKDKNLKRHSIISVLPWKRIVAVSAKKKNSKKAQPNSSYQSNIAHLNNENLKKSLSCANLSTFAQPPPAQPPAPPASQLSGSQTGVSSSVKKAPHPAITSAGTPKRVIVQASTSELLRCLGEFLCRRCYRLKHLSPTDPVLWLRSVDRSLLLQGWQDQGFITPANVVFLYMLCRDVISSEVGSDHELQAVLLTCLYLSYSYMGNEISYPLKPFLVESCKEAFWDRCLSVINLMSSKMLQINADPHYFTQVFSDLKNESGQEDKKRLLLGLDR

Row | Compound | OGD-dependent p25 generation [2] | TTC staining intensity relative to 60 min OGD without inhibitor [3] | neuroprotective effect against OGD-induced neuronal death [3] | viability (TTC staining) after 60 min OGD [3] | other results
1 | Oc1cc2c(c(Cl)c1O)CCNCC2c1ccccc1 (centres unmarked) [SKF81297] | – | – | – | – | increase in phospho-Ser845 GluR1 ([1]; oxygenated slices, 1 μM, 5 min): 2.0±0.1 fold; increase in phospho-Thr34 DARPP-32 ([1]; oxygenated slices, 1 μM, 5 min): 3.6±0.3 fold
2 | CC(C)[C@H](NC(=O)OCc1ccccc1)C(=O)N[C@H](C=O)Cc1ccccc1 [calpain inhibitor 3] (Cbz-Val-Phe-aldehyde) | prevented p25 generation | – | – | – | –
3 | CCCC[C@@H](C=O)NC(=O)[C@H](CC(C)C)NC(=O)OCc1ccccc1 [calpeptin] | prevented p25 generation | 111.3±6.0 fold | significantly blocked neuronal death | 69.6±6.6 % of control levels | –
4 | Indolinone B [Indo B] | – | – | no such neuroprotective effect | – | effect on Cdk5-dependent phosphorylation of DARPP-32 [4]: had no effect
5 | indolinone A [Indo A] | – | 95.5±9.6 fold | significantly blocked neuronal death | 59.7±6.0 % of control levels | induction of i-LTP at corticostriatal synapses ([5]; 3 min OGD, n=5): completely blocked the induction of i-LTP; loss of field potential (FP) induced by ischemia ([5]; 10 min OGD): significantly reduced the loss of FP; phospho-Thr75 DARPP-32, reduction to % of basal levels ([4]; 5 μM): 26±8 % of basal levels; IC50 ([4]; 1-10 μM, 1 h): 0.29 µM; increase in phospho-Ser845 in response to SKF81297 after 10 min of ischemia ([1]; preincubation with Indo A 10 μM, 1 h, 10 min OGD/10 min reperfusion): 4.7±1.2 fold
